The source of these data is ChEMBL document CHEMBL1201862, “PubChem BioAssay data set” (2004).

Active and inactive are the calls of the source.

One assay addresses T1, Aspartyl aminopeptidase (Plasmodium falciparum 3D7, UniProt Q8I2J3).
T1 sequence (Q8I2J3 whole entry): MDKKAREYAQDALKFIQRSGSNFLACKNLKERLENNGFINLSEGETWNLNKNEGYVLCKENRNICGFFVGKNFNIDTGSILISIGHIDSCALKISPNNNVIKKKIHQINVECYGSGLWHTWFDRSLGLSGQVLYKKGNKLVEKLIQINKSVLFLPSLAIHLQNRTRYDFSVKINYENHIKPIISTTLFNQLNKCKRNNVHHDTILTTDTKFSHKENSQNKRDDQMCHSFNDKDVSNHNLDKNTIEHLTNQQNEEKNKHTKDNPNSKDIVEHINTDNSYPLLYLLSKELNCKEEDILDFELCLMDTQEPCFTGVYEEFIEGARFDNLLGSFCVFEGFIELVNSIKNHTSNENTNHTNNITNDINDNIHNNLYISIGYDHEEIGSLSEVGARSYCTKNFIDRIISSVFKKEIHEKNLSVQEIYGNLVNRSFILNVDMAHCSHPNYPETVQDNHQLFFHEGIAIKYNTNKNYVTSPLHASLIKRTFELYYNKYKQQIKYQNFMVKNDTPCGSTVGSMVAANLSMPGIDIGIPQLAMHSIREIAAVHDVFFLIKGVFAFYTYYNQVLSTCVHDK

The target in the next assay is Procathepsin L (Homo sapiens, UniProt P07711).
For assay [1], the target named is T2, Neuropeptide Y receptor type 1 (Homo sapiens, UniProt P25929).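 Further: HEK293 cells with a CNG channel challenged with NPY then isoproterenol; potency as antagonist that reverses NPY suppression of cAMP signal.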
T2 sequence (P25929 whole entry): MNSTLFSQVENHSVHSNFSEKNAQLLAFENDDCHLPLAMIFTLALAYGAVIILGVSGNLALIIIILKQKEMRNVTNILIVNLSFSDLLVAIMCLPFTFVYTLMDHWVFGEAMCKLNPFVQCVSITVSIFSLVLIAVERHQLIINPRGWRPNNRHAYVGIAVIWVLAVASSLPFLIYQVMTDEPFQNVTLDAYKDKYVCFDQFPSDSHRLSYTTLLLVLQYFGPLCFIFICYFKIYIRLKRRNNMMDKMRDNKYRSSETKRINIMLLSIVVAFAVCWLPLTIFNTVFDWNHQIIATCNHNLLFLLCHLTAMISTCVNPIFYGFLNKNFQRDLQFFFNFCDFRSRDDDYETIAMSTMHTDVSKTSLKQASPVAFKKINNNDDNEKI
In kind it is functional.

Assay [2] concerns the target T3, Neuropeptide Y receptor type 2 (Homo sapiens, UniProt P49146).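 Further: HEK293 cells expressing the receptor and a CNG channel; stimulus was NPY near EC95 followed by isoproterenol to raise cAMP; antagonist potency measured as restoring cAMP signal that NPY suppresses.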
T3 sequence (P49146 whole entry): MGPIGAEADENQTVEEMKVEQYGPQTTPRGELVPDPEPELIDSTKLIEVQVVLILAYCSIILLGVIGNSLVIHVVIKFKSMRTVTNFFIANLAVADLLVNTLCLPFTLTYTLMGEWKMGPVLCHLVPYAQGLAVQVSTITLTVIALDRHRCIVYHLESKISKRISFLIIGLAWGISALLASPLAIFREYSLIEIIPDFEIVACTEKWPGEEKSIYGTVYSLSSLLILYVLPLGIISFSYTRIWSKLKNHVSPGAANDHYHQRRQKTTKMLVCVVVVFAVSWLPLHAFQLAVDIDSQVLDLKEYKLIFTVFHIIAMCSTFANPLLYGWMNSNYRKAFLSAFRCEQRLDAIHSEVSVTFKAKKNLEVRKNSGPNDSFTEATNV
Format: functional, cell-based.

The nature of assay [3]: Luminescence Cell-Based Dose Retest to Confirm Inhibitors of Cancer Stem Cells. [Related pubchem assays (depositor defined):AID2717, AID2721]. In kind it is functional. The note with it: Homo sapiens.
Assay [4] in a line: cytotoxicity in HEK-293T cells, dose response, cytotoxicity control for BCR NF-kB inhibitor project, luminescence, B-cell screen hits (AID 489021).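 Further: HEK-293T cells carrying an NF-kB luciferase reporter; cells exposed to compound for about 14 hours before viability readout.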 In kind it is functional, cell-based.
Assay [5] concerns the target T4, Acyl-homoserine lactone acylase PvdQ (Pseudomonas aeruginosa (strain LESB58), UniProt Q9I194).
T4 sequence (Q9I194 whole entry): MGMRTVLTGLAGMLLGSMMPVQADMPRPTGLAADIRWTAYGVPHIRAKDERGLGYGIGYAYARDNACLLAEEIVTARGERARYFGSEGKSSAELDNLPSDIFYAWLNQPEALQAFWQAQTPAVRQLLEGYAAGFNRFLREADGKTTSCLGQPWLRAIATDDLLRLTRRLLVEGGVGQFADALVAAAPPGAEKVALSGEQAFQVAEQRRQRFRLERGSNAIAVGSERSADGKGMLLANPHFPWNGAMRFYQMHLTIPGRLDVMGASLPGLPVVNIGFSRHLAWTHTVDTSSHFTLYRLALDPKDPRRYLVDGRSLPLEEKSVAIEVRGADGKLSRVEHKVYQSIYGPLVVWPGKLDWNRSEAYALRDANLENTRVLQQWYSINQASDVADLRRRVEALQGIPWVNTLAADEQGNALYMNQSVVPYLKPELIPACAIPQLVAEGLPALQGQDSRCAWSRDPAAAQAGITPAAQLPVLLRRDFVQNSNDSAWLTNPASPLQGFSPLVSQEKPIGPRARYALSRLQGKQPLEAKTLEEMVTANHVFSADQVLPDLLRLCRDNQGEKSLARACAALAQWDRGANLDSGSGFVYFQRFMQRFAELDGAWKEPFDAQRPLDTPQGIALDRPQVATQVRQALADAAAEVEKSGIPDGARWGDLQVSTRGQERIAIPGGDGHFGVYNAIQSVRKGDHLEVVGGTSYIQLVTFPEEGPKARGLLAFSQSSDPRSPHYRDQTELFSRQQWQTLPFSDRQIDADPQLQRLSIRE
Briefly: P. aeruginosa PvdQ acylase inhibitors, dose response, biochemical, fluorescence, plate reader and imaging, cherry-picks (AID 493231).

The nature of assay [6]: Luminescence Cell-Based Dose Confirmation HTS to Identify Activators of 5'UTR Stem-Loop Driven Alpha-Synuclein mRNA Translation in H4 Neuroglioblastoma Cells. [Related pubchem assays: 1829 (Project Summary), 1814 (Primary HTS)]. In kind it is functional.
Assay [7] in a line: Luminescence Cell-Based Dose Response HTS to Identify Activators of Luciferase Translation or Activity in H4 […] Cells. [Related pubchem assays: 1829 (Project Summary), 1814 (Primary HTS)]. In kind it is functional.
For a further assay, the system named is H4. The experiment in a line: Luminescence Cell-Based Dose Response HTS to Identify Activators of 5'UTR Stem-Loop Driven Prion Protein mRNA Translation in H4 Neuroglioblastoma Cells. [Related pubchem assays: 1829 (Project Summary), 1814 (Primary HTS)]. In kind it is functional. The note with it: Homo sapiens.
A further assay addresses T5, Protein skinhead-1 (Caenorhabditis elegans, UniProt P34707).
T5 sequence (P34707 whole entry): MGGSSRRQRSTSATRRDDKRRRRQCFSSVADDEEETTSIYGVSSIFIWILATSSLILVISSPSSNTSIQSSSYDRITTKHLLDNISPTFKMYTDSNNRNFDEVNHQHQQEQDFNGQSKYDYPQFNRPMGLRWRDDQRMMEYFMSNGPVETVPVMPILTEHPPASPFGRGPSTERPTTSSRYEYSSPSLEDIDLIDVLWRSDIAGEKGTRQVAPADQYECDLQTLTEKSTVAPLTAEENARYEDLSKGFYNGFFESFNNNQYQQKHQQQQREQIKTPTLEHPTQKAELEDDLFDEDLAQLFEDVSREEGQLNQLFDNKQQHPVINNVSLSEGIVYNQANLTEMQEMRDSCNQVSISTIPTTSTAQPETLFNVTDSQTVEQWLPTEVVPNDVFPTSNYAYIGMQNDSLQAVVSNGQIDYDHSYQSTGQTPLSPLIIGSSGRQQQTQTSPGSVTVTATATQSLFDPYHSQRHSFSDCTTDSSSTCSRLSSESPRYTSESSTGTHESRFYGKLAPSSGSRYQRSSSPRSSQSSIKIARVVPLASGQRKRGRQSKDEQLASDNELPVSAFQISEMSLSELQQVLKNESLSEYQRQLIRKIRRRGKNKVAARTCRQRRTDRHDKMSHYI
In kind it is functional.

Another assay addresses T6, Mucolipin-3 (Homo sapiens, UniProt Q8TDD5).
T6 sequence (Q8TDD5 whole entry): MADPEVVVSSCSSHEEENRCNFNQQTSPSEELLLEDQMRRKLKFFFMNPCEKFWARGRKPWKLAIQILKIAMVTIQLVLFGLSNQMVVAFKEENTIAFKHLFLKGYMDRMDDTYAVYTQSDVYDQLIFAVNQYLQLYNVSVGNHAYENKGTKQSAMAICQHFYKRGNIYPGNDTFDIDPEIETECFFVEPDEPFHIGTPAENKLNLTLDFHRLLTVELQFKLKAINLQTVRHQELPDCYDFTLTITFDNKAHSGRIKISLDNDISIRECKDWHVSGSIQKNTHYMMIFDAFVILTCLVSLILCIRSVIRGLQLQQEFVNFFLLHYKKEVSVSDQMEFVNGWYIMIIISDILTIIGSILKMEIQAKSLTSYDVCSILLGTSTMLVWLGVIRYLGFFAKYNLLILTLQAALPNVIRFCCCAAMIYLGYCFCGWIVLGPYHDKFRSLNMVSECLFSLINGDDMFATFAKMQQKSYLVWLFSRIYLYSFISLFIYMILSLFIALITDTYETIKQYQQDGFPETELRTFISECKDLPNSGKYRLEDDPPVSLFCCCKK
Briefly: Dose response cell-based high-throughput screening assay for agonists of the transient receptor potential channel ML3 (TRPML3). [Related pubchem assays: 1526, 1424, 1448 ]. In kind it is functional.

Another assay concerns the target Ion channel NompC (Danio rerio, UniProt Q7T1G6). The experiment in a line: Fluorescence counterscreen assay for TRPML3 agonists: dose response cell-based high-throughput screening assay to identify agonists of the transient receptor potential channel N1 (TRPN1). [Related pubchem assays: 1526, 1424, 1448 ]. In kind it is functional. Background: The purpose of a counterscreen is to sort out artefacts and off-target activity.

Procathepsin L, sequence (P07711 whole entry): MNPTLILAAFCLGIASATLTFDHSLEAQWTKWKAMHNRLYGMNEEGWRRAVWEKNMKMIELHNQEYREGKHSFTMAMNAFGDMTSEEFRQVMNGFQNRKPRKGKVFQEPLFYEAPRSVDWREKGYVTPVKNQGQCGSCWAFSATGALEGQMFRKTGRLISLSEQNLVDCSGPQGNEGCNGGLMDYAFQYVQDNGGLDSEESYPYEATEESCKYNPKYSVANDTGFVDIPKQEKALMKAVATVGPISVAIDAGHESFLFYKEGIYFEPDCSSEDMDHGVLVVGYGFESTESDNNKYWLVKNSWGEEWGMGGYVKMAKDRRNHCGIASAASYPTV
Ion channel NompC, sequence (Q7T1G6 whole entry): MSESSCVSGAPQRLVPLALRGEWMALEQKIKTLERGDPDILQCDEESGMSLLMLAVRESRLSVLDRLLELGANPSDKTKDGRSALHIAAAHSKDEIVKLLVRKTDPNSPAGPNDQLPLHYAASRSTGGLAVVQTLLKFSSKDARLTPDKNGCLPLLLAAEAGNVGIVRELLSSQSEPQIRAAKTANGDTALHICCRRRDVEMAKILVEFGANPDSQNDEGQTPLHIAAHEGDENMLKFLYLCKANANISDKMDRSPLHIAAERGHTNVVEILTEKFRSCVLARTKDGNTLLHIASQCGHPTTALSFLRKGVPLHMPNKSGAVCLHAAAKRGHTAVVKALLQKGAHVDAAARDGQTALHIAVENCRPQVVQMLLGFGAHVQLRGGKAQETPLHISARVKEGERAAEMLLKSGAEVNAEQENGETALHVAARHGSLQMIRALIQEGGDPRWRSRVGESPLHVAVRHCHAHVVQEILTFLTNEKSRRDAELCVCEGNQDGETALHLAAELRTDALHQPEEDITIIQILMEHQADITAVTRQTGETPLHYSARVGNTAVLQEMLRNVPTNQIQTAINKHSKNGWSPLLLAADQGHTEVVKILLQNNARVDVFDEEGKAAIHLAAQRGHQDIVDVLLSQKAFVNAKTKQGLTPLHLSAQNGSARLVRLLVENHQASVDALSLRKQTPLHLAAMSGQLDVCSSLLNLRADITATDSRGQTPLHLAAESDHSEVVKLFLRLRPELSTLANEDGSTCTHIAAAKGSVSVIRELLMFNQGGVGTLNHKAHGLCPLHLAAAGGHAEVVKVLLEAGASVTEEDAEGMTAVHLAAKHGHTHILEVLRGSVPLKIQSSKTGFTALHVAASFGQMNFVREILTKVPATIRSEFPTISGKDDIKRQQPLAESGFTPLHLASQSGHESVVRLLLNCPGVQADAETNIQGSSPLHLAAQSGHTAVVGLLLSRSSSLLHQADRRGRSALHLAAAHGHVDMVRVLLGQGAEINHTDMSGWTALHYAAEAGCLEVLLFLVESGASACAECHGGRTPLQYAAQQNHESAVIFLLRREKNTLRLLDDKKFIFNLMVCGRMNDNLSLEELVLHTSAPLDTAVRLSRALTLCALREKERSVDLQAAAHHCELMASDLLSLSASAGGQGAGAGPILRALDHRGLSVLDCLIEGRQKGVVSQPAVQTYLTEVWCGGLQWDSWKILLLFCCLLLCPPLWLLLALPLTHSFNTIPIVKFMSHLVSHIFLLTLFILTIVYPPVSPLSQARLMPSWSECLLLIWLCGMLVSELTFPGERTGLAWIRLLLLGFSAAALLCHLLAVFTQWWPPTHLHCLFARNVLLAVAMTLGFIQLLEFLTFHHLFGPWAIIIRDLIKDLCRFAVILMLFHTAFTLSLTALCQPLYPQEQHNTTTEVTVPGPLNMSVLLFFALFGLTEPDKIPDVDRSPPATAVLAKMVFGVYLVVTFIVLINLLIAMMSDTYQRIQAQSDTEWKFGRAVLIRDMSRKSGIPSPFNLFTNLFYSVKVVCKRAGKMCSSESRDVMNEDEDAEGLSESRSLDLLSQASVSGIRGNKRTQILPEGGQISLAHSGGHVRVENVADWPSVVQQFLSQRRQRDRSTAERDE

As to `O=C(CNC(=O)c1ccccc1)NCCc1ccc(O)c(O)c1`, the 50% inhibitory concentration (IC50) was 1.81 µM (active) on Aspartyl aminopeptidase and > 59.6 µM (not active) at Procathepsin L.
`COc1ccc(/C=N/NC(=O)CN(CCc2ccccc2)S(=O)(=O)c2ccc(NC(C)=O)cc2)cc1OC`: the results for the IC50 in assay [1] and in assay [2] were 10.4 µM (not active) and 3.55 µM (active), respectively.
As to `CCc1ccc2[nH]c3nc(N/N=C/c4cccc(O)c4)nnc3c2c1`, in [3], the half-maximal activity concentration (AC50) was < 0.16 µM (active). For the same molecule, in assay [4], the IC50 is > 80 µM (inactive).
Regarding `COC(=O)c1ccc(NC(=S)N2CCCC2)cc1`, the half-maximal activity concentration (AC50) in assay [5] is 10.3 µM (active).
In the case of `CCOC(=O)c1cc2c(s1)-c1c(C)cccc1OC2`, the 50% effective concentration (EC50) in assay [6] is 39.8 µM (active); in [7], 7.26 µM (active); in the assay on H4 it was 30.9 µM (active). Moreover, the AC50 in assay [5] is 0.443 µM (active).
With `O=C(/C=C/c1ccccc1)Nn1cnnc1`, the IC50 at Aspartyl aminopeptidase was 1.76 µM (active); at Procathepsin L, > 59.6 µM (not active); at Protein skinhead-1 it was > 100 µM (inactive).
`O=C(C=Cc1ccco1)c1cc(Cl)ccc1O`: in [5], the AC50 is 21.6 µM (active).
In the case of `CCCCCCNS(=O)(=O)c1ccc(NC(=O)C2CCCO2)cc1` (stereo unspecified), the IC50 in assay [1] was 13.7 µM (not active); in [2] it was 7.94 µM (active).
With `N=c1ccn(Cc2c(Cl)cccc2Cl)cc1`, in assay [4], the IC50 is > 80 µM (inactive).
Take `COc1cc(Br)cc(/C=N/c2nc[nH]n2)c1O`: the IC50 was 2.35 µM (active) at Aspartyl aminopeptidase and > 59.6 µM (not active) against Procathepsin L.
As for `COc1ccc(S(=O)(=O)N2CCCCCC2)cc1N(C)S(=O)(=O)c1ccccc1`, the EC50 was 3.92 µM (active) on Mucolipin-3 and > 29.9 µM (not active) on Ion channel NompC.
With `CC(/C=C1\SC(=S)N(NC(=O)c2ccc(C)cc2)C1=O)=C\c1ccccc1`, the values for the IC50 in [1] and in [2] were > 35 µM (not active) and 20.6 µM (not active), respectively.
Turning to `Cc1ccc(S(=O)(=O)c2c(C)nn(C(C)(C)C)c2OC(=O)C2CCCC2)cc1`, the EC50 at Mucolipin-3 and on Ion channel NompC was > 29.9 µM (not active) throughout.

In general, IC50 refers to the concentration that inhibits the measured activity by half. What is called AC50 is the concentration at which the activity in the assay is half-maximal. For orientation: EC50 means the concentration giving half of the maximal effect.
